Laboratory results taken from US9456589B2, “Elasmobranch-repelling compounds and methods of use” (priority 2005, dated 2016).
Several values for one entry are separate records, joined by “and”; a condition that tells them apart may be missing. Equal entries are not always repeated.

How the values were obtained:
[1] = tested on: tiger sharks; assay: Tonic immobility, Hd Syringe Assay; assay type: in vivo, G. cuvieri; details: 1 ml
Description: (§1) One bioassay used to observe and measure flight response is the tonic immobility test. Tonic immobility is a state of paralysis that typically occurs when a shark is subject to inversion of its body along the longitudinal axis. This state is called “tonic,” and the shark can remain in this state for up to 15 minutes thereby allowing researchers to observe effects of chemical repellents. The “tonic” state of the shark is first established by releasing seawater in proximity to the “tonic” shark with the same delivery instrument and at the same distance as a “test” repellent compound will be released. Some controls are released with a high flow rate (30 mL/sec) in order to establish that sharks are not awakened by a jet of fluid over their noses. Once behavioral controls are established, a compound or composition that may have a repelling effect is delivered to the shark. If the compound or composition engenders a flight response, the shark will awaken from the tonic state and rapidly attempt to flee the delivered repellent. Using this tonic immobility bioassay researches can quantify the strength of a repellent effect.
Lemon, nurse, blacktip and tiger sharks were placed in tonic immobility by inverting the shark's body along its longitudinal axis. […]

[2] = tested on: sharks (lemon, nurse, blacknose, blacktip pooled); assay: Tonic immobility, Syringe Assay, summary over species; assay type: in vivo
How it was run: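 Test chemical delivered as a bolus of 60 mL or more from one to five feet from the shark, distance set by water current strength. Time from delivery until response was recorded; it depends on bolus size, distance and current as the diffusing cloud reaches the shark.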

[3] = tested on: sharks (species pooled); assay: Tonic immobility, total of delivery methods not including Micropipette assays; assay type: in vivo
Description: as §1
Table 1, which summarizes the data in Tables 14 and 15, evidences the gustatory repellent characteristics of methylbutanals. In 35 of 36 assays (combining columns “Y” and “R” under the column labeled “Total (Not including Micropipette Assays)” to arrive at a 97% effectiveness rate), including assays on lemon, nurse, tiger and blacktip sharks, the gustatory repellent activity of 3-methylbutanal was established. In 81% of assays, tonic immobility was fully terminated. […] In only a single assay did a shark not respond to treatment with 3-methylbutanal.

[4] = species and delivery methods pooled

Compound: CC(C)CC=O [3-methylbutanal]
- Response (time from delivery to response) [1]: 1 s
- TTI (termination of tonic immobility) [1]: Y
- Syringe Y (termination of tonic immobility), trials of trials [2]: 7/7
- assays with termination of tonic immobility or behavior change (Y and R combined), not including Micropipette assays ([3]; Hd Syringe, Syringe 3/5/10 and Bite, lemon, nurse, tiger, blacktip): 40 of 41 and 35 of 36
- effectiveness rate (Y and R combined), not including Micropipette assays ([3]; lemon, nurse, tiger, blacktip): 97%
- Total (Not including Micropipette assays / Effective Delivery Methods) N, trials of trials [3, 4]: single and 1/36
- Total (Not including Micropipette assays / Effective Delivery Methods) R, trials of trials [3, 4]: 6/36
- Total (Not including Micropipette assays / Effective Delivery Methods) Y, trials of trials [3, 4]: 29/36
- Total N, percent of trials [3, 4]: (3%)
